In ChEMBL document CHEMBL4196104, “Hawaiienols A-D, Highly Oxygenated p-Terphenyls from an Insect-Associated Fungus, Paraconiothyrium hawaiiense” (J Nat Prod, 2018) one finds Activity and IC50 data, which are given here for 4 compounds.

Holding throughout (format): functional, cell-based
Test [1] has as its system A549. Briefly: Antiproliferative activity against human A549 cells at 50 uM after 24 hrs by CCK-8 assay. For orientation: Tetrazolium dyes change colour on reduction, which living cells bring about.
In test [2] the test system is T-24. Briefly: Antiproliferative activity against human T24 cells at 50 uM after 24 hrs by CCK-8 assay.
For test [3], the system named is HeLa. The test can be described thus: Antiproliferative activity against human HeLa cells at 50 uM after 24 hrs by CCK-8 assay.
The subject of test [4] is HCT-116. The test can be described thus: Antiproliferative activity against human HCT116 cells at 50 uM after 24 hrs by CCK-8 assay.
Test [5] concerns MCF7. The test can be described thus: Antiproliferative activity against human MCF7 cells at 50 uM after 24 hrs by CCK-8 assay.
Test [6] has as its system SH-SY5Y. Briefly: Antiproliferative activity against human SH-SY5Y cells at 50 uM after 24 hrs by CCK-8 assay.
The subject of test [7] is A549. Briefly: Antiproliferative activity against human A549 cells after 24 hrs by CCK-8 assay. The following applies: A549, 24 h.
The subject of test [8] is T-24. Briefly: Antiproliferative activity against human T24 cells after 24 hrs by CCK-8 assay. The note with it: T-24, 24 h.
The test system of test [9] is HeLa. Briefly: Antiproliferative activity against human HeLa cells after 24 hrs by CCK-8 assay.
Test [10] has as its system HCT-116. Briefly: Antiproliferative activity against human HCT116 cells after 24 hrs by CCK-8 assay. The following applies: HCT-116, 24 h.
Test [11] deals with MCF7. The test can be described thus: Antiproliferative activity against human MCF7 cells after 24 hrs by CCK-8 assay. The note with it: MCF7, 24 h.
Test [12] concerns SH-SY5Y. Briefly: Antiproliferative activity against human SH-SY5Y cells after 24 hrs by CCK-8 assay.

Calls of active or inactive are those of the source. The calls are words filed in the database; no cut-off is given here.

For `COc1ccc([C@]2(O)[C@H](O)C(=O)[C@@](O)(c3ccc(OC)cc3)[C@H](O)[C@H]2O)cc1`, the result in [1], in [2], in [3], in test [4], in test [5] and in [6] was inactive.

Consider `COc1ccc([C@]23O[C@](c4ccc(OC)cc4)([C@@H](O)[C@@H]2O)[C@@H](O)[C@@H]3O)cc1`, for which the result in test [1], in test [2], in test [3], in [4], in test [5] and in [6] was inactive.

Take `COc1ccc([C@]23O[C@@H]4C2O[C@](OC)([C@H]3O)[C@]4(O)c2ccc(O)cc2)cc1`: the IC50 (usually the midpoint of a concentration-inhibition curve) stood at 23.1 µM in test [7]; 46.6 µM in test [8]; 19.7 µM in [9]; 57.1 µM in test [10]; 42.9 µM in test [11]; 9.3 µM in test [12].

On to `COc1ccc([C@]2(O)C(=O)[C@@]3(OC)OC2[C@@H](O)[C@@]3(O)c2ccc(OC)cc2)cc1`, for which the result in [1], in test [2], in test [3], in test [4], in [5] and in test [6] was inactive.
